Measured values from paper PMC11078216, “Discovery of potent and selective activity-based probes (ABPs) for the deubiquitinating enzyme USP30” (RSC Chemical Biology, 2024).

Experiments:
CTSZ = target: T1, CTSZ (Homo sapiens, UniProt Q9UBR2); test: ABPP chemical proteomics (LC-MS/MS) in HEK293T cells; type: cell-based
T1 construct: endogenous in cells; host or cells: HEK293T
Procedure: To explore the selectivity of IMP-2587 and IMP-2586 across the whole proteome, we performed quantitative activity-based protein profiling (ABPP) in HEK293T cells following treatment with IMP-2587 or IMP-2586 (Fig. 3a). After ABP incubation, cells were lysed, and probe-labelled proteins were ligated to biotinylated capture reagents.[27] […] USP30 was outcompeted by corresponding parent inhibitors for each ABP (Fig. 5b and d and Tables S3 and S5, ESI ^†), confirming the high potency and rapid engagement of IMP-2587 and IMP-2586 in cells. […] DESI1 and DESI2 are small ubiquitin-related modifier (SUMO) proteases,[3,29–32] and IMP-2587 and IMP-2586 may offer a starting point for future development of DESI ABPs. […]
The cells were washed with PBS and lysed with lysis buffer (50 μL (1% (v/v) Triton X-100, 0.1% (w/v) sodium dodecyl sulfate (SDS), EDTA-free complete protease inhibitor cocktail (1×, Roche) in PBS on ice for 10 min. The lysates were scraped and transferred to corresponding Lo-Bind Eppendorfs. Each lysate was sonicated for 1 minute, and the samples centrifuges at 5,000 x g at 4 °C for 5 minutes to pellet insoluble cellular debris. The supernatant was collected, and protein concentration was determined using the DC Protein Assay (Bio-Rad) as per manufacturer’s instructions, and normalised to lowest concentrated sample (e.g. 1 mg/mL, using lysis buffer). […]

USP30 = conditions: following 30 minutes incubation; read-out: reported IC50 against USP30; cited from earlier work

T1 sequence (Q9UBR2 62-303): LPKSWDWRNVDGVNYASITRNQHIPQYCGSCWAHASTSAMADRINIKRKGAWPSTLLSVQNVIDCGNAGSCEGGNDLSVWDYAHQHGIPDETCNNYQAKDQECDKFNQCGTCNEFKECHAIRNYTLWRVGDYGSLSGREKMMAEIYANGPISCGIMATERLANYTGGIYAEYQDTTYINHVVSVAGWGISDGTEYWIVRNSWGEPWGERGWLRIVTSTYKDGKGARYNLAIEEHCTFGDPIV

Difference (log2 fold change of enrichment) (CTSZ; compound 1 out-competition with IMP-2587 labelling, HEK293T (Table S3, Fig.5b))	Compound	Difference (log2 fold change of enrichment) (CTSZ; IMP-2587 labelling vs DMSO, 30 nM, 10 min, HEK293T (Table S2, Fig.5a))	IC50 (USP30)
–	C#Cc1cccc(-c2cc(NC(=O)CC3CCN(C#N)C3)on2)c1 (stereo not shown) [IMP-2587]	2.29	–
-2.01	N#CN1CC[C@H](CC(=O)Nc2cc(-c3cccc(Cl)c3)no2)C1 [compound 1, reference compound]	–	1 to 10 nM
–	N#CN1CC[C@@H](NC(=O)c2cc(-c3ccccc3Oc3ccccc3)n[nH]2)C1 [compound 3, reference compound]	–	1.5 nM
